The source of these data is patent publication US20200206196A1, “Antiviral Drugs” (priority 2017, published 2020).

Residues, ends and D or L forms follow the SMILES beside them.

Data set [1] has as its system HeV. Type of data set: cell-based, Hendra virus.
The subject of a further data set is NiV. In kind it is cell-based, Nipah virus.
The test system of another data set is RSV. In kind it is cell-based, RSV (strain A2).
For data set [2], the system named is vesicular stomatitis virus (VSV). In kind it is cell-based.
Data set [3] has as its system influenza A virus (A/WSN/33). Type of data set: cell-based, Influenza A/WSN/33 (H1N1).
Data set [4] relates to HeLa cells. As to the kind of experiment: Alamar blue assay of metabolic activity. In kind it is cell-based. To be noted: HeLa cells treated for 26 h, vs vehicle or media.
Data set [5] deals with HeV-F and HeV-G mediated cell-cell fusion. Type of data set: cell-based, Hendra virus.
The test system of data set [6] is HeV. Type of data set: cell-based, Hendra virus. The source holds these as a separate data set.
Data set [7] concerns HeV. Type of data set: cell-based, Hendra virus. This is another data set of the same source.
The subject of data set [8] is HeLa cells. As to the kind of experiment: Cell viability: relative cell numbers (DAPI nuclei count). Conditions: 26 h post-treatment, concentrations resulting in antiviral activity.
The subject of data set [9] is HeV. Type of data set: cell-based, Hendra virus. This is another data set of the same source.

Regarding `CCOc1nc2cccc(C(=O)O)c2n1Cc1ccc(-c2ccccc2-c2nnn[nH]2)cc1` [Candesartan], in the data set on HeV [1], the “HeV infection (HeV titres), dose response” value is recorded as “inhibited HeV infection in a dose-dependent manner”.

For the molecule `CCCc1nc2c(C)cc(-c3nc4ccccc4n3C)cc2n1Cc1ccc(-c2ccccc2C(=O)O)cc1` [Telmisartan], in the data set with HeV [1], the “HeV infection (HeV titres), dose response” value was “inhibited HeV infection in a dose-dependent manner”; the “reduction in HeV titers” value is given as about 95%; the “reduction in virus titres, HeV” value was “significant reduction in virus titres”. Moreover, the “reduction in virus titres, NiV” value in the data set on NiV is given as “significant reduction in virus titres”. The “reduction in virus titres, RSV” value in the data set with RSV is given as “significant reduction in virus titres”. Also, the “reduction in virus titres, VSV” value in data set [2] is given as “significant reduction in virus titres”. For the same molecule, in [3], the “reduction in virus titres, A/WSN/33” value is listed as “not for A/WSN/33”. Besides, in the data set with HeLa cells [4], the “change in metabolic activity (Alamar blue)” value is recorded as “no significant change in metabolic activity”. Further, the “cell-cell fusion of target cells with HeV-F/HeV-G effector cells” value in data set [5] is recorded as “comparable to target cells treated with vehicle”. In addition, in the data set with HeV [6], the “intracellular viral RNA levels” value was “significantly reduced intracellular viral RNA levels”. Also, in the data set on HeV [7], the “viral protein production (P protein and N protein)” value was “almost completely abolished”. Besides, the “impact on cell numbers” value with HeLa cells [8] is reported as “mild impact on cell numbers”.

On to `CSCC[C@@H](C=O)NC(=O)[C@H](CC(C)C)NC(=O)[C@H](CC(C)C)NC(C)=O` [calpain inhibitor II] (Ac-Leu-Leu-Met-aldehyde), for which, in the data set on HeV [9], the “inhibition of viral protein synthesis (virus antigen levels per well)” value is listed as “more effective than E64D” and the “inhibition of virus-induced cell death (cell numbers per well)” value was “more effective than E64D”.
